According to patent US7405038B1, “Stable cell lines resistant to apoptosis and nutrient stress and methods of making same” (Boyce Thompson Institute for Plant Research, Inc., priority 2000, dated 2008):
Numbered stars: 1 amine (or outer) side, 2 acyl side, 3 side chain; on linkers, the order of the positions; unused ones are H or OH. Bridge positions count the residues as written; N and C are the ends. Square brackets hold non-standard residues; d marks the D form. Peptide text beside a SMILES is read from it. I, II: the chains in the order shown. Actinocin(9to1) = Cc1c2oc3c(C)ccc(C(=O)[*:1])c3nc-2c(C(=O)[*:2])c(N)c1=O; NMeV = CN[C@H](C(=O)O)C(C)C; Sar = CNCC(=O)O

Tested on: Sf9P35AcV5-3 cells
Assay: Resistance to induction of apoptosis by actinomycin D: cell survival
Assay type: cell-based, Spodoptera frugiperda
Method: The cells were examined for resistance to induction of apoptosis by actinomycin D, as well as survival under conditions of nutrient deprivation. Sf9 cells or stably transfected lines Sf9^P35AcV5−1 and Sf9^P35AcV5−3 were incubated in medium containing 0.1 μg/ml actinomycin D for 1 hour, then placed in TNMFH medium.
Increasing doses of actinomycin D were tested to further examine the degree of resistance to this inducer of apoptosis. Sf9 or stably transfected cells expressing P35 were incubated in a range of concentrations of actinomycin D (0.01 to 0.5 μg/ml) for one hour, then placed in TNMFH and scored for cell survival after 1-4 days (Table 2).

Cc1c2oc3c(C)ccc(C(=O)N[C@@H]4C(=O)N[C@H](C(C)C)C(=O)N5CCC[C@H]5C(=O)N(C)CC(=O)N(C)[C@@H](C(C)C)C(=O)O[C@@H]4C)c3nc-2c(C(=O)N[C@@H]2C(=O)N[C@H](C(C)C)C(=O)N3CCC[C@H]3C(=O)N(C)CC(=O)N(C)[C@@H](C(C)C)C(=O)O[C@@H]2C)c(N)c1=O [Actinomycin D, actinomycin D] (I: T[dV]P[Sar][NMeV] / II: T[dV]P[Sar][NMeV]; ester I:1-I:C, II:1-II:C; linker I:N-II:N via Actinocin(9to1))
Sf9P35AcV5-3 Cell Survival (Percentage) (0.01 μg/ml actinomycin D for one hour, Day 1): 100 Percentage | Sf9P35AcV5-3 Cell Survival (Percentage) (0.01 μg/ml actinomycin D for one hour, Day 2): 100 Percentage | Sf9P35AcV5-3 Cell Survival (Percentage) (0.01 μg/ml actinomycin D for one hour, Day 3): 100 Percentage | Sf9P35AcV5-3 Cell Survival (Percentage) (0.01 μg/ml actinomycin D for one hour, Day 4): 100 Percentage | Sf9P35AcV5-3 Cell Survival (Percentage) (0.025 μg/ml actinomycin D for one hour, Day 1): 100 Percentage | Sf9P35AcV5-3 Cell Survival (Percentage) (0.025 μg/ml actinomycin D for one hour, Day 2): 100 Percentage | Sf9P35AcV5-3 Cell Survival (Percentage) (0.025 μg/ml actinomycin D for one hour, Day 3): 100 Percentage | Sf9P35AcV5-3 Cell Survival (Percentage) (0.025 μg/ml actinomycin D for one hour, Day 4): 100 Percentage | Sf9P35AcV5-3 Cell Survival (Percentage) (0.05 μg/ml actinomycin D for one hour, Day 1): 100 Percentage | Sf9P35AcV5-3 Cell Survival (Percentage) (0.05 μg/ml actinomycin D for one hour, Day 2): 100 Percentage | Sf9P35AcV5-3 Cell Survival (Percentage) (0.05 μg/ml actinomycin D for one hour, Day 3): 100 Percentage | Sf9P35AcV5-3 Cell Survival (Percentage) (0.05 μg/ml actinomycin D for one hour, Day 4): 100 Percentage | Sf9P35AcV5-3 Cell Survival (Percentage) (0.075 μg/ml actinomycin D for one hour, Day 1): 100 Percentage | Sf9P35AcV5-3 Cell Survival (Percentage) (0.075 μg/ml actinomycin D for one hour, Day 2): 100 Percentage | Sf9P35AcV5-3 Cell Survival (Percentage) (0.075 μg/ml actinomycin D for one hour, Day 3): 100 Percentage | Sf9P35AcV5-3 Cell Survival (Percentage) (0.075 μg/ml actinomycin D for one hour, Day 4): 100 Percentage | survival of Sf9P35AcV5-3 cells (0.1 μg/ml actinomycin D for 1 hour, then TNMFH medium, after three days): survived | Sf9P35AcV5-3 Cell Survival (Percentage) (0.1 μg/ml actinomycin D for one hour, Day 1): 100 Percentage | Sf9P35AcV5-3 Cell Survival (Percentage) (0.1 μg/ml actinomycin D for one hour, Day 2): 100 Percentage | Sf9P35AcV5-3 Cell Survival (Percentage) (0.1 μg/ml actinomycin D for one hour, Day 3): 100 Percentage | Sf9P35AcV5-3 Cell Survival (Percentage) (0.1 μg/ml actinomycin D for one hour, Day 4): 100 Percentage | survival of stably transfected line (0.25 μg/ml actinomycin D): 100% | Sf9P35AcV5-3 Cell Survival (Percentage) (0.25 μg/ml actinomycin D for one hour, Day 1): 100 Percentage | Sf9P35AcV5-3 Cell Survival (Percentage) (0.25 μg/ml actinomycin D for one hour, Day 2): 100 Percentage | Sf9P35AcV5-3 Cell Survival (Percentage) (0.25 μg/ml actinomycin D for one hour, Day 3): 100 Percentage | Sf9P35AcV5-3 Cell Survival (Percentage) (0.25 μg/ml actinomycin D for one hour, Day 4): 100 Percentage | survival of stably transfected line (0.5 μg/ml actinomycin D): ≤ 10% | Sf9P35AcV5-3 Cell Survival (Percentage) (0.5 μg/ml actinomycin D for one hour, Day 1): 9.2 Percentage | Sf9P35AcV5-3 Cell Survival (Percentage) (0.5 μg/ml actinomycin D for one hour, Day 2): 8.5 Percentage | Sf9P35AcV5-3 Cell Survival (Percentage) (0.5 μg/ml actinomycin D for one hour, Day 3): 1.5 Percentage | Sf9P35AcV5-3 Cell Survival (Percentage) (0.5 μg/ml actinomycin D for one hour, Day 4): 0 Percentage | resistance to actinomycin D as an inducer of apoptosis (relative to Sf9 cells): ≥ 2 fold
